Measurements taken from US11299524B2, “KIF13B-derived peptide and method of inhibiting angiogenesis” (THE BOARD OF TRUSTEES OF THE UNIVERSITY OF ILLINOIS, priority 2016, dated 2022).

Experiments:
HUVECs [1] = experiment: VEGF-induced proliferation, WST-1 assay; format: cell-based, human; conditions: 3 μmol/L
Description: VEGF-induced proliferation and viability of HUVECs were assessed by the WST-1 assay (Roche) as previously described (Cai, et al. (2006) Microvasc. Res. 71:20-31; Jones, eta 1. (2005) Br. J. Pharmacol. 145:1093-102). […] Then HUVECs were stimulated with VEGF (2.2 nmol/L), with and without DUF2C5 (1, 3, and 10 μmol/L), or negative control peptide (CT23, 3 μmol/L) for 48 hours to test VEGF-induced proliferation by WST-1 assay in a 96-well format.
The effects of DUF2C5 on VEGF-induced proliferation were subsequently determined by the WST-1 assay.

HUVECs [2] = experiment: scratch wound healing assay; format: cell-based, human
Description: (§1) Collagen invasion assay was performed as previously described (Kang, et al. (2011) J. Biol. Chem. 286:42017-26). In vitro capillary network formation on […] (BD Biosciences, San Jose, Calif.) and scratch wound healing assay were performed as previously described (Humtsoe, et al. (2010) Mol. Cell Biol. 30:1593-1606). Fibrin gel sprouting assay was performed as described by Nakatsu & Hughes ((2008) Methods Enzymol. 443:65-82). VEGF (2.2 nmol/L) stimulation was used for all in vitro angiogenesis assays. Transwell migration assay was performed as described by Kaplan, et al. ((2011) Free Radical Res. 45:1124-35) using VEGF (4.4 nmol/L), sphingosine-1-phosphate (S1P) (1 μmol/L), or basic fibroblast growth factor (bFGF) (50 ng/mL) in the presence or absence of kinesin-derived angiogenesis inhibitor (DUF2C5; residues 1238-1260 of KIF13B) at varying concentrations.
(§2) EC migration in response to DUF2C5 was determined using the scratch wound healing assay. […] The […] migration assay was also employed to determine whether the inhibitory effect of DUF2C5 on EC migration was specific to VEGF. HUVECs were placed in the […] chamber with or without DUF2C5 or CT23. […] PBS and CT23 had no effect on EC migration induced by all stimuli.

HUVECs [3] = experiment: […] migration assay; format: cell-based, human; conditions: TRANSWELL
Description: Specificity of the inhibitory effect of DUF2C5 was determined by EC migration induced by different stimuli in a […] migration assay. HUVECs migrated toward 2.2 nmol/L VEGF, 50 ng/mL basic fibroblast growth factor (bFGF), or 1 μmol/L sphingosine-1-phosphate (S1P) were visualized by hematoxylin staining, and number of migrated cells were counted. Data are expressed as means±SEM. N=3. *P<0.05 (one-way analysis of variance and Bonferroni multiple comparisons test).
as §1, §2

PDGFRα = biological target: T1, PDGFRα (Homo sapiens, UniProt P16234); experiment: pull-down on streptavidin beads followed by mass spec analysis; format: binding; conditions: peptide immobilized on streptavidin beads
T1 construct: endogenous in cells
T1 sequence (P16234 24-1089): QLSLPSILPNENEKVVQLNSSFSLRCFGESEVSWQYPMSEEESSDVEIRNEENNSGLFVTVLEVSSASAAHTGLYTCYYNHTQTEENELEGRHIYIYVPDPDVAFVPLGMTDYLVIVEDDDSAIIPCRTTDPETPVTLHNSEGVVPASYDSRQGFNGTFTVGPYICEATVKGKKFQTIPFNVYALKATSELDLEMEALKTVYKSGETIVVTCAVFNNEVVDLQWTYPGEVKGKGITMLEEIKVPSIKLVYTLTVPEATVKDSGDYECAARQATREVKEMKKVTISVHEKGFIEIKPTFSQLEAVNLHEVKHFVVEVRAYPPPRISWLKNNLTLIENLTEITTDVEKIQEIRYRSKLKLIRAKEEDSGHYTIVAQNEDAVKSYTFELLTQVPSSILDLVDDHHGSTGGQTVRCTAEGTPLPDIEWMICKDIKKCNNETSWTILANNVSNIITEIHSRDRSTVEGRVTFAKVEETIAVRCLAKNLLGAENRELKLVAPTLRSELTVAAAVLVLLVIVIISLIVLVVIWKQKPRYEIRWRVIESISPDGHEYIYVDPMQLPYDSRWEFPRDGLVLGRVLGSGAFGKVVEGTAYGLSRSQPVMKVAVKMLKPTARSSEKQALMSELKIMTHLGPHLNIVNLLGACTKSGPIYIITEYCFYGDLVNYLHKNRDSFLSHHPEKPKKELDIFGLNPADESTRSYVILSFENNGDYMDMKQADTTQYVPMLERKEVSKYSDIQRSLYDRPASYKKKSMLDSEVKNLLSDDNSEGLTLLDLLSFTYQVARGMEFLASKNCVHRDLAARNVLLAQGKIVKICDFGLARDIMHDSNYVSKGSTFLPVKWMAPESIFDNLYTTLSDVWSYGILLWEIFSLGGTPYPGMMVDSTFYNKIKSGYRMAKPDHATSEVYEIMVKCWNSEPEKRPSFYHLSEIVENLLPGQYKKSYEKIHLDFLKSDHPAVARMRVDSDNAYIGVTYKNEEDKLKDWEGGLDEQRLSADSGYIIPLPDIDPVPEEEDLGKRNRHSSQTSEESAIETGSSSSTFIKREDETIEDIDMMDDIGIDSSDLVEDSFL
Description: (§3) Additionally, the sequence of DUF2C5 is highly conserved in mammalian KIF13B. […] To further test the specificity of DUF2C5, pull-down of proteins was conducted using DUF2C5 or control peptide (CT23) immobilized on streptavidin beads followed by mass spec analysis of the binding proteins. This analysis detected the presence of KIF13B, VEGFR2, and co-receptor NRP1 (number of hits were 28, 11, and 5, respectively). Tie2, Par1, S1PR1, and FGFR were not found. Other cargo for KIF13B (e.g., CentA, hDlg) were also not found. […] The affinity of each receptor tyrosine kinase was subsequently tested via surface plasmon resonance (SPR) with BIACORE (UIC, RRC), using DUF2C5 and CT23 on an avidin-coated chip, and recombinant cytosolic domain of kinases (Fisher Scientific).

VEGFR2 [4] = biological target: T2, VEGFR2 (Homo sapiens, UniProt P35968); experiment: pull-down binding assay with endogenous VEGFR2 from HUVEC lysates; parameters: endogenous in cells; host or cells: HUVEC; conditions: HUVEC lysate, anti-VEGFR2 western blot
Description: Truncated mutants of KIF13B were expressed in BL21 (DE3) or Rosetta-gami and purified as previously described (Yamada, et al. (2014) J. Cell Sci. 127:4518-30; Yamada, et al. (2007) Biochemistry 46:10039-45).
Using recombinant proteins, the binding sites on KIF13B mediating the interaction with VEGFR2 were identified. KIF13B has a motor, forkhead-associated, membrane-associated guanylate kinase-binding stalk, 2 domains of unknown function (DUFs) (DUF3694), and a proline-rich and cytoskeleton-associated protein glycine-rich domain. The DUFs were identified from amino acid sequence similarity on the Pfam database. It has been previously shown that both domains of DUF3694 directly bind recombinant VEGFR2 in vitro (Yamada, et al. (2007) Biochemistry 46:10039-45). To define the specific peptide sequence inhibiting VEGFR2 trafficking, further analysis of the second DUF3694 domain (DUF2, residues 1112-1281 of KIF13B) was carried out. This was based on stability of this domain and a sequence distinct from binding sites for other cargoes of KIF13B (Horiguchi, et al. (2006) J. Cell Biol. 174:425-436; Hanada, et al. (2000) J. Biol. Chem. 275:28774-2878). DUF2 was divided into 3 parts, DUF2A (residues […]), DUF2B (residues 1168-1216), and DUF2C (residues 1217-1281) and each part was expressed as a recombinant protein in bacteria. VEGFR2 was abundantly expressed in HUVECs; thus, cell lysate from HUVECs was incubated with these recombinant proteins on beads, and VEGFR2 binding was determined using the anti-VEGFR2 antibody.
To identify the minimum binding site on VEGFR2, DUF2C was further truncated (DUF2C1-9) (FIG. 1). […] Stability of the C5 peptide was attributed to the 4-6 C-terminal residues. Accordingly, replacing these C-terminal residues with another a peptide, one or more post-translational modifications, one or more non-natural amino acid residues, a macromolecule such as PEG, or a combination thereof, is expected to stabilize the KAI peptide.
Initially, peptide interaction with VEGFR2 was confirmed using the pull-down assay.
To further define the KIF13B residues involved in binding to VEGFR2, truncations of the DUF2C5 peptide were tested for binding to VEGFR2 (Table 3) and compared to binding of DUF2C5 and peptides flanking this region (FIG. 1).
Target sequence in this assay (P35968 20-1356): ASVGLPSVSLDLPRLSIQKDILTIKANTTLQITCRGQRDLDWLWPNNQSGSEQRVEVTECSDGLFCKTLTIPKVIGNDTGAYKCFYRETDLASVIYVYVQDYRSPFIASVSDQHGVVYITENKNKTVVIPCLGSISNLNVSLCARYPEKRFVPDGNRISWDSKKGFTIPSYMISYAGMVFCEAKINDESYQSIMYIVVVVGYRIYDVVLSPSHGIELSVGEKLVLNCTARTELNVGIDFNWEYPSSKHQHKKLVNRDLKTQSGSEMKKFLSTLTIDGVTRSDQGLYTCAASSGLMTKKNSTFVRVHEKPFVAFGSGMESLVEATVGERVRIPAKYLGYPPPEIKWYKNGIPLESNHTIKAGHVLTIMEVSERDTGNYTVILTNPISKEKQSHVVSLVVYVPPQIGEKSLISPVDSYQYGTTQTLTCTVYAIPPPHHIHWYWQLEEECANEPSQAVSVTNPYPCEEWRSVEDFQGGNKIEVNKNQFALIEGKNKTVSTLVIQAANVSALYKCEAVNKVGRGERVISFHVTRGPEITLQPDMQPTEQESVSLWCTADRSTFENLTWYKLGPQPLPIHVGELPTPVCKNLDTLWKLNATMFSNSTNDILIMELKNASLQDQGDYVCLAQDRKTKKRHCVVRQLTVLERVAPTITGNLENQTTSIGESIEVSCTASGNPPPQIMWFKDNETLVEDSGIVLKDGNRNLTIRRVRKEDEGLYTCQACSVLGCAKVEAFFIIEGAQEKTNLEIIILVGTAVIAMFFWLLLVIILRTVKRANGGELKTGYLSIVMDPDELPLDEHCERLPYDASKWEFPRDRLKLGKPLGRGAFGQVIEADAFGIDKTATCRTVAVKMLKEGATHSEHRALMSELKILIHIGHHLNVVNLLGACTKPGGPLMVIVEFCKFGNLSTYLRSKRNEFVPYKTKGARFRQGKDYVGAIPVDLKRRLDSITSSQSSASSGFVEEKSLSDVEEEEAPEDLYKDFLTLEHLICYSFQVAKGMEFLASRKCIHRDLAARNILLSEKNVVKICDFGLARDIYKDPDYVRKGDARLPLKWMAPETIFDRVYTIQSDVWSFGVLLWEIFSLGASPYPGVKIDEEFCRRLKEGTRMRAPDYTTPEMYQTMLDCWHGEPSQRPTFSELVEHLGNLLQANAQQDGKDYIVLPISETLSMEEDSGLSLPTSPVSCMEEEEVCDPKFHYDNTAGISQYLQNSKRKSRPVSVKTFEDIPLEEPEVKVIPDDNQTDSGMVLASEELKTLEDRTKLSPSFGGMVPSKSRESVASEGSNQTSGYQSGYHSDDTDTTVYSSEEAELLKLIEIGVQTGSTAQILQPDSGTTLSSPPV

VEGFR2 [5] = biological target: T2, VEGFR2; experiment: surface plasmon resonance (SPR) with BIACORE; format: binding; parameters: recombinant cytosolic domain of kinases (Fisher Scientific); purchased Fisher Scientific; conditions: peptide on avidin-coated chip, recombinant cytosolic domain of kinase
Description: as §3
Target sequence in this assay (P35968 786-1356 limits assumed, species assumed): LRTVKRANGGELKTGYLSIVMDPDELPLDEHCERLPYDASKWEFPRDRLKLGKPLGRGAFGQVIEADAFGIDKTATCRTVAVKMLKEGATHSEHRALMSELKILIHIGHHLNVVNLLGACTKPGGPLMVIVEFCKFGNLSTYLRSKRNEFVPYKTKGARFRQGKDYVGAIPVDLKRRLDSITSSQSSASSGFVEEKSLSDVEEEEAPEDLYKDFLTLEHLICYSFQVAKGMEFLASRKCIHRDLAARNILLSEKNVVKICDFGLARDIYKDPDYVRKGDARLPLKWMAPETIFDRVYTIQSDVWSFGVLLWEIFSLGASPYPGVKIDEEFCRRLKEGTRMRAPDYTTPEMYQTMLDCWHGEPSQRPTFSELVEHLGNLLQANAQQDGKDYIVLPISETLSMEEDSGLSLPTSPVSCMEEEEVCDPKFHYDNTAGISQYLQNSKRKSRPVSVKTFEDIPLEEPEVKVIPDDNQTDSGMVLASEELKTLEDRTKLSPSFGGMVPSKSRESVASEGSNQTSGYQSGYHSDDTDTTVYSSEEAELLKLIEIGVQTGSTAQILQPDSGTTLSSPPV

PDGFRα among binding proteins, number of hits (PDGFRα): did not interact
VEGFR2 binding (VEGFR2 [4]): did not interact with VEGFR2
KD value, VEGFR2 (VEGFR2 [5]): did not bind
Substance: CT23: negative control, C-terminal 23-amino acid peptide, residues 1650 to 1672 of KIF13B (RVRASELRSFSRMLAGDPGCSPG)
VEGF-induced proliferation (HUVECs [1]): had no effect
VEGF-induced migration of HUVECs (wound closure) (HUVECs [2]): migrated and closed the wound
bFGF-induced EC migration (HUVECs [3]; stimulus 50 ng/mL bFGF): had no effect
S1P-induced EC migration (HUVECs [3]; stimulus 1 μmol/L S1P): had no effect
VEGF-induced EC migration (HUVECs [3]; stimulus VEGF): had no effect
